According to ChEMBL document CHEMBL5247677, “N-Aryl Indoles as a Novel Class of Potent NaV1.7 Inhibitors” (ACS Med Chem Lett, 2023):
Values after ≈ are worked out from the molar mass of the structure shown. Active and inactive are the calls of the source. The rule behind the calls is not given here.

What was measured:
[1] = target: Sodium channel protein type 9 subunit alpha/beta-1/beta-2 (Homo sapiens, UniProt Q15858); assay: Inhibition of human Nav1.7/beta1/2 transfected in HEK293-A cells assessed as inhibition of channel current incubated for 5.5 mins by high-throughput electrophysiology system analysis; type: cell-based
[2] = target: Sodium channel protein type 9 subunit alpha/beta-1/beta-2 (Mus musculus, UniProt Q62205); assay: Inhibition of mouse Nav1.7/beta1/2 transfected in HEK293-A cells assessed as inhibition of channel current incubated for 5.5 mins by high-throughput electrophysiology system analysis; type: cell-based
[3] = target: Sodium channel protein type 1 subunit alpha/beta-1/beta-2 (Homo sapiens, UniProt P35498); assay: (§1) Inhibition of human Nav1.1/beta1/2 transfected in HEK293-A cells assessed as inhibition of channel current incubated for 5.5 mins by high-throughput electrophysiology system analysis; type: toxicity, cell-based
[4] = target: Sodium channel protein type 5 subunit alpha/beta-1/beta-2 (Homo sapiens, UniProt Q14524); assay: (§2) Inhibition of human Nav1.5/beta1/2 transfected in HEK293-A cells assessed as inhibition of channel current incubated for 5.5 mins by high-throughput electrophysiology system analysis; type: toxicity, cell-based
hERG (KCNH2) = hERG (KCNH2) (Homo sapiens, UniProt Q12809); assay: Inhibition of hERG at 100 uM; type: toxicity
[5] = 1-Octanol/PBS buffer distribution coefficient, log D of the compound at pH 7.4 by HPLC/LC-MS analysis; type: physicochemical
[6] = Aqueous thermodynamic solubility of the compound at pH 6.8 measured after 4 hrs by HPLC-UV analysis; type: physicochemical; settings: read-out: Therm_solubility
[7] = Unbound fraction in mouse plasma; type: ADME, cell-free
[8] = Selectivity ratio of IC50 for human Nav1.1/beta1/2 transfected in HEK293-A cells to IC50 for human Nav1.7/beta1/2 transfected in HEK293-A cells
Mus musculus [9] = assay: Analgesic activity against PSL-induced neuropathic pain mouse model assessed as reversal of thermal hyperalgesia at 1 mg/kg, po measured after 30 mins by plantar test; type: functional; settings: 0.5 h
Mus musculus [10] = assay: Analgesic activity against PSL-induced neuropathic pain mouse model assessed as reversal of thermal hyperalgesia at 1 mg/kg, po measured after 60 mins by plantar test; type: functional, organism-based
Mus musculus [11] = assay: Analgesic activity against PSL-induced neuropathic pain mouse model assessed as reversal of thermal hyperalgesia at 1 mg/kg, po measured after 180 mins by plantar test; type: functional, organism-based
[12] = Cmax in ddY mouse at 1 mg/kg, po by LC-MS/MS analysis; type: ADME, organism-based; set-up: dose 1 mg/kg, route po; settings: in vivo
[13] = Tmax in ddY mouse at 1 mg/kg, po by LC-MS/MS analysis; type: ADME, organism-based; settings: in vivo
[14] = AUC(0 to 24 hrs) in ddY mouse at 1 mg/kg, po by LC-MS/MS analysis; type: ADME, organism-based; set-up: dose 1 mg/kg, route po; settings: in vivo
[15] = Half life in ddY mouse at 1 mg/kg, po by LC-MS/MS analysis; type: ADME, organism-based; settings: in vivo
[16] = Ratio of fCmax in ddY mouse plasma at 1 mg/kg, po to IC50 for inhibition of mouse Nav1.7/beta1/2 transfected in HEK293-A cells
[17] = Total body clearance in ddY mouse at 1 mg/kg, iv by LC-MS/MS analysis; type: ADME, organism-based; settings: in vivo
[18] = Volume of distribution at steady state in ddY mouse at 1 mg/kg, iv by LC-MS/MS analysis; type: ADME, organism-based; settings: in vivo, read-out: Vdss
[19] = Bioavailability in ddY mouse at 1 mg/kg, iv by LC-MS/MS analysis; type: ADME, organism-based; settings: in vivo
[20] = target: Nav1.1/beta1/beta2 sodium channel (Homo sapiens, UniProt P35498); assay: as §1; type: toxicity, cell-based; settings: human, HEK293-A cells transfected with human Nav1.1/beta1/2
[21] = target: Nav1.5/beta1/beta2 sodium channel (Homo sapiens, UniProt Q14524); assay: as §2; type: toxicity, cell-based; settings: human, HEK293-A cells transfected with human Nav1.5/beta1/2
[22] = Selectivity ratio of IC50 for mouse Nav1.7/beta1/2 transfected in HEK293-A cells to IC50 for human Nav1.7/beta1/2 transfected in HEK293-A cells; type: cell-based
[23] = Selectivity ratio of IC50 for human Nav1.5/beta1/2 transfected in HEK293-A cells to IC50 for human Nav1.7/beta1/2 transfected in HEK293-A cells
Mus musculus [24] = assay: Analgesic activity against PSL-induced neuropathic pain mouse model assessed as reversal of thermal hyperalgesia at 3 mg/kg, po by plantar test; type: functional, organism-based

Sodium channel protein type 9 subunit alpha/beta-1/beta-2 (Mus musculus, UniProt Q62205), sequence (Q62205 whole entry): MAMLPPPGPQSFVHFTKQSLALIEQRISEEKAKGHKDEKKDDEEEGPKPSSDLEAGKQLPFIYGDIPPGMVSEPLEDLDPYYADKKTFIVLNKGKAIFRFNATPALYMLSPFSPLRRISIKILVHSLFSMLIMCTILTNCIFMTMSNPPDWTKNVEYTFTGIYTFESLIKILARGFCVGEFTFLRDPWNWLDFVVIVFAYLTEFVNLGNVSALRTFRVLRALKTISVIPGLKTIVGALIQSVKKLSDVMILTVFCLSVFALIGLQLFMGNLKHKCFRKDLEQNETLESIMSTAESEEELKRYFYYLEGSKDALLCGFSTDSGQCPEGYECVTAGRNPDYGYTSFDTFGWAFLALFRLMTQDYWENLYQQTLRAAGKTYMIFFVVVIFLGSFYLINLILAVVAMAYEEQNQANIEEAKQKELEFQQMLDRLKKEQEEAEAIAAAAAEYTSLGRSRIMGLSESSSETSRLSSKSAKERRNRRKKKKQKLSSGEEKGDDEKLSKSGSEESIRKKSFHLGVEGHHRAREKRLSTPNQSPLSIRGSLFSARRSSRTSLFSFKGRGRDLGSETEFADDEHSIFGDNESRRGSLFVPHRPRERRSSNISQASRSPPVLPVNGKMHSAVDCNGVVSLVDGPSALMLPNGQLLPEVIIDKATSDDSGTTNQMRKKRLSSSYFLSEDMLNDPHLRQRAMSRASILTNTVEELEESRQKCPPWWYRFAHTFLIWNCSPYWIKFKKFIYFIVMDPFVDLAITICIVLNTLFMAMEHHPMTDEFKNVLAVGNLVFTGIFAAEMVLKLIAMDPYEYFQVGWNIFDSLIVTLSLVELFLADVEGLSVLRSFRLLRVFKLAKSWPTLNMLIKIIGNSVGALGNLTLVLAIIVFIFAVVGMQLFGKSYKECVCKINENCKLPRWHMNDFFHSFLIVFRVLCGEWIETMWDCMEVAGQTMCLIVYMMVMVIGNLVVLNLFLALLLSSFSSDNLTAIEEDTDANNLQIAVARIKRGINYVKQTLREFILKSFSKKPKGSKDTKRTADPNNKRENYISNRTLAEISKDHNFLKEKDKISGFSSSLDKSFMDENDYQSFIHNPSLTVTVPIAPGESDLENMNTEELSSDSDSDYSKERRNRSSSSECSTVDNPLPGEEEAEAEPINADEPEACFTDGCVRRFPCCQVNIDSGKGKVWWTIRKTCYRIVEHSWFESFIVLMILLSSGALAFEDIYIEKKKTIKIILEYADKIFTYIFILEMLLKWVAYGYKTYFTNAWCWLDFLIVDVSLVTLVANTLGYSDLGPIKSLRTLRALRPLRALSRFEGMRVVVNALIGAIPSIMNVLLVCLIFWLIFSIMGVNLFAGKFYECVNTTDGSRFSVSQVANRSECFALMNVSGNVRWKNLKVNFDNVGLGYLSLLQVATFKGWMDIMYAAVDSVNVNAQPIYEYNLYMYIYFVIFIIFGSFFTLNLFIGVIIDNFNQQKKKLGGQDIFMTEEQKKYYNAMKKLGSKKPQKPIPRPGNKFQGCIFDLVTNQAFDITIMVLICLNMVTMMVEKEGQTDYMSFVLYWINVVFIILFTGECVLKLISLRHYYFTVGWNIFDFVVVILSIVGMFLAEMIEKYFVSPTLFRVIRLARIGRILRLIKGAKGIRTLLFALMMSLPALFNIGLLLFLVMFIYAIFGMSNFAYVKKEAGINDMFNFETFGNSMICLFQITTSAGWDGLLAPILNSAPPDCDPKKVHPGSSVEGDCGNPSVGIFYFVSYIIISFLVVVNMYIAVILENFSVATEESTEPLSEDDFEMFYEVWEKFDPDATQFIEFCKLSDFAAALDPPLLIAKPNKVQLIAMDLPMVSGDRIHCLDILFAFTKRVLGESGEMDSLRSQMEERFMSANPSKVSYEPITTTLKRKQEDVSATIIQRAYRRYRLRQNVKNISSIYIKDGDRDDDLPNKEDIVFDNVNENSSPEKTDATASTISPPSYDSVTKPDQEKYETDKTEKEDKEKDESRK
Sodium channel protein type 9 subunit alpha/beta-1/beta-2 (Mus musculus, UniProt Q62205), sequence (P97952 whole entry, further chain): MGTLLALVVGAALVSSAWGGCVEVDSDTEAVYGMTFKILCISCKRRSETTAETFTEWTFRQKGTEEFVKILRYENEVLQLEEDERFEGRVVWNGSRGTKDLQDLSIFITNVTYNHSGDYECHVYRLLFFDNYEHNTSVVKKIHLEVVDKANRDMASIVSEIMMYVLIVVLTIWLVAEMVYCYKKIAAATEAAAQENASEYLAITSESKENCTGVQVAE
Sodium channel protein type 9 subunit alpha/beta-1/beta-2 (Mus musculus, UniProt Q62205), sequence (Q56A07 whole entry, further chain): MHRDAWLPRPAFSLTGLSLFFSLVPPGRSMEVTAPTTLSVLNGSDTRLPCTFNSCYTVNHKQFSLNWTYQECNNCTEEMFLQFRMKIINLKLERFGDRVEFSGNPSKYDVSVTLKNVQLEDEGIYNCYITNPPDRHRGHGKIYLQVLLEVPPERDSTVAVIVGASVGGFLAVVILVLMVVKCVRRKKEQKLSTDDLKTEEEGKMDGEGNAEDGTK
Sodium channel protein type 9 subunit alpha/beta-1/beta-2 (Homo sapiens, UniProt Q15858), sequence (Q15858 whole entry): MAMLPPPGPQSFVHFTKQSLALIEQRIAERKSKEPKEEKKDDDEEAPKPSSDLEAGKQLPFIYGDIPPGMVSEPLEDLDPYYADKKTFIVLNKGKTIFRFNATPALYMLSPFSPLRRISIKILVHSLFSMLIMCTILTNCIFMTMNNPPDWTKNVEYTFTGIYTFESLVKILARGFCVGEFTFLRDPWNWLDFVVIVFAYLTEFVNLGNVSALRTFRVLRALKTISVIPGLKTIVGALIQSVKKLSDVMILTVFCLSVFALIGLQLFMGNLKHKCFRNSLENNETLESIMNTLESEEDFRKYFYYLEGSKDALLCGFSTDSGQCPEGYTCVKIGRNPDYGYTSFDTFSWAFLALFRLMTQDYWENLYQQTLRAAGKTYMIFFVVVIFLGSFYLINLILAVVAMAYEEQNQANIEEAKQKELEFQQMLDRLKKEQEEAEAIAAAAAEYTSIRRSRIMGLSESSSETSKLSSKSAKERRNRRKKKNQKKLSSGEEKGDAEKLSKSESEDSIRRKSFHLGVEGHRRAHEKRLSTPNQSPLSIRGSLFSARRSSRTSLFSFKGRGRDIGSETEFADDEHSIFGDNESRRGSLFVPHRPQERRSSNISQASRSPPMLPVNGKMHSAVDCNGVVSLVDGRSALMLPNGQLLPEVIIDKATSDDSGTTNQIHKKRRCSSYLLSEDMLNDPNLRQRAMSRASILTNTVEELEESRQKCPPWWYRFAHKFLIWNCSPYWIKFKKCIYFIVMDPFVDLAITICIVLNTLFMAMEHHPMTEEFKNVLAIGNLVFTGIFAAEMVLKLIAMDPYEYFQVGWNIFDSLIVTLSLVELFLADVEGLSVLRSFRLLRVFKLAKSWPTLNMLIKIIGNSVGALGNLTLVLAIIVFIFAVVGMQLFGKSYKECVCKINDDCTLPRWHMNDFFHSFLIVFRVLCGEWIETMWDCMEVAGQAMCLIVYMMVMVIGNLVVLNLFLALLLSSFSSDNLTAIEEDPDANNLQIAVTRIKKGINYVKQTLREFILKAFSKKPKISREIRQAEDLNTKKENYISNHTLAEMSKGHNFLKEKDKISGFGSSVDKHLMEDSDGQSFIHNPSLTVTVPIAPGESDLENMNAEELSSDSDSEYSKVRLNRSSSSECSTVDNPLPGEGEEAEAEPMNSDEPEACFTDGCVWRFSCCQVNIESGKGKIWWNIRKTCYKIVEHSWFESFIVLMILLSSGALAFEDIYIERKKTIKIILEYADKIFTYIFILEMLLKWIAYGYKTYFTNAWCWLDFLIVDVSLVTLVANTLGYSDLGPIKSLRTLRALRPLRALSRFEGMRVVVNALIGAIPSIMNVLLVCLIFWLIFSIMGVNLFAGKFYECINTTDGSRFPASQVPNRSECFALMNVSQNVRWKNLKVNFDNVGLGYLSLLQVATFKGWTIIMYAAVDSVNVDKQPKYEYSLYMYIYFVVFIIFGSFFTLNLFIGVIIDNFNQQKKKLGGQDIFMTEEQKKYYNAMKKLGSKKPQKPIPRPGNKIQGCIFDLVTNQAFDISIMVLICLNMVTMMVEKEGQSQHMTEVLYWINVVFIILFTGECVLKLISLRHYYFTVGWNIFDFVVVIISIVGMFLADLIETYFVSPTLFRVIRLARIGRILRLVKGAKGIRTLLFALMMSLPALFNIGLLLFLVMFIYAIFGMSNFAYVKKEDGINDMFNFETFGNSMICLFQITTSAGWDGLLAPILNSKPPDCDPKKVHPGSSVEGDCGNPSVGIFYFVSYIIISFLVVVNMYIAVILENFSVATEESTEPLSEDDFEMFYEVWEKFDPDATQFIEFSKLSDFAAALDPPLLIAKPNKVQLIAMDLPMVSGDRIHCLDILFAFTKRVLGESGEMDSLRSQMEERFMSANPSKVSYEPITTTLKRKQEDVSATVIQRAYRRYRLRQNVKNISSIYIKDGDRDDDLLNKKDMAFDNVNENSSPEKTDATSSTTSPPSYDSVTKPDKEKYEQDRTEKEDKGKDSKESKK
Sodium channel protein type 9 subunit alpha/beta-1/beta-2 (Homo sapiens, UniProt Q15858), sequence (O60939 whole entry, further chain): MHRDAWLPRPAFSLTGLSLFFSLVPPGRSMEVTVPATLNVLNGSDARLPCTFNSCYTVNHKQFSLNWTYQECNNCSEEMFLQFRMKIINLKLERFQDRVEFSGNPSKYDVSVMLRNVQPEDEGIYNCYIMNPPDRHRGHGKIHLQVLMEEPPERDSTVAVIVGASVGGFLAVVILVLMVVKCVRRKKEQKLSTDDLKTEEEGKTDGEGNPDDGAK
Sodium channel protein type 9 subunit alpha/beta-1/beta-2 (Homo sapiens, UniProt Q15858), sequence (Q07699 whole entry, further chain): as the sequence (P97952 whole entry, further chain) above, with T3R, W18C, D27E, T50N, D130E, L144I, V179I, A191T counted along it

| Structure (SMILES) | IC50 [1] [nM] | IC50 [2] [nM] | logD [5] | solubility thermodynamic at 4 h [6] [µM] | fraction unbound [7] | IC50 [3] [µM] | IC50 [4] [µM] | inhibition at 100 µM (hERG (KCNH2)) [%] | other results |
| --- | --- | --- | --- | --- | --- | --- | --- | --- | --- |
| CS(=O)(=O)NC(=O)c1ccc2c(ccn2Cc2ccccc2)c1 | > 10000 | > 10000 |  |  |  |  |  |  |  |
| Cc1cn(-c2ccc(F)cc2)c2ccc(C(=O)NS(C)(=O)=O)cc12 | 190 | 2800 | 1.1 | 140 (≈ 48.5 µg/mL) | < 0.002 | 52 | 42 | 5.6 |  |
| CS(=O)(=O)NC(=O)c1ccc2c(ccn2-c2ccccc2)c1 | > 10000 | > 10000 |  |  |  |  |  |  |  |
| Cc1cn(-c2cncc(Cl)c2)c2ccc(C(=O)NS(=O)(=O)C3CC3)cc12 | 85 | 460 | 0.8 | 35 (≈ 13.6 µg/mL) |  | 9.9 | 107 | 34.1 |  |
| Cc1cn(-c2cccc(Cl)c2)c2ccc(C(=O)NS(C)(=O)=O)cc12 | 87 | 1700 | 1.8 | 620 (≈ 225 µg/mL) | < 0.002 | 20 | 34 | 43.5 |  |
| Cc1cccc(-n2cc(C)c3cc(C(=O)NS(C)(=O)=O)ccc32)c1 | 58 | 1600 | 1.6 | 550 (≈ 188 µg/mL) |  | 39 |  | 51 |  |
| CS(=O)(=O)NC(=O)c1ccc2[nH]cc(-c3ccccc3)c2c1 | > 10000 | > 10000 |  |  |  |  |  |  |  |
| Cc1cn(-c2ccccc2F)c2ccc(C(=O)NS(C)(=O)=O)cc12 | 5900 | 12000 |  |  |  |  | 100 |  |  |
| Cc1cn(-c2ccc(C(F)(F)F)nc2)c2ccc(C(=O)NS(=O)(=O)C3CC3)cc12 | 59 | 1600 | 1 | 29 (≈ 12.3 µg/mL) | 0.014 | > 100 | 210 | 21 |  |
| O=C(NS(=O)(=O)N1CCC1)c1cc(C2CC2)c(OCC23CC4CC(CC(C4)C2)C3)cc1F |  |  |  |  |  |  |  |  | IC50 at 5.5 min [21]: 51 nM |
| Cc1cn(-c2ccccc2)c2ccc(C(=O)NS(C)(=O)=O)cc12 | 330 | 2700 | 1.1 | > 660 | < 0.002 | 80 | 79 | 17.1 | Ratio IC50 [22]: 10; Ratio IC50 [8]: 240; Ratio IC50 [23]: 240 |
| Cn1cc(-c2ccccc2)c2cc(C(=O)NS(C)(=O)=O)ccc21 | > 10000 | > 10000 |  |  |  |  |  |  |  |
| COc1cccc(-n2cc(C)c3cc(C(=O)NS(C)(=O)=O)ccc32)c1 | 190 | 2100 | 1.2 | 580 (≈ 208 µg/mL) | < 0.002 | 79 | 71 | 18.9 |  |
| Cc1cn(-c2cccnc2)c2ccc(C(=O)NS(C)(=O)=O)cc12 | > 10000 |  |  |  |  |  | > 300 | -0.1 |  |
| Cc1cn(-c2cccnc2)c2ccc(C(=O)NS(=O)(=O)C3CC3)cc12 | 1600 | > 10000 |  |  |  | > 100 | > 300 | -8.8 |  |
| Cc1cn(-c2cncc(F)c2)c2ccc(C(=O)NS(=O)(=O)C3CC3)cc12 | 860 | 2700 |  |  |  | > 100 | > 300 | -1.1 |  |
| Cc1cn(-c2ccc(Cl)cc2)c2ccc(C(=O)NS(C)(=O)=O)cc12 | 260 | 7900 | 1.8 | 26 (≈ 9.43 µg/mL) |  | > 100 | 23 | 51.1 |  |

Second part, led by results:

| IC50 [1] [nM] | IC50 [2] [nM] | logD [5] | solubility thermodynamic at 4 h [6] [µM] | fraction unbound [7] | Structure (SMILES) | IC50 [3] [µM] | IC50 [4] [µM] | inhibition at 100 µM (hERG (KCNH2)) [%] | other results |
| --- | --- | --- | --- | --- | --- | --- | --- | --- | --- |
| 40 | 15 | 0.6 | 25 (≈ 11 µg/mL) | 0.007 | Cc1cn(-c2cncc(C(F)(F)F)c2)c2cc(F)c(C(=O)NS(=O)(=O)C3CC3)cc12 | 1.2 | 32 | -2.9 | Ratio IC50 [8]: 30; Efficacy (Mus musculus [9]): 64%; Activity (Mus musculus [10]): Active; Activity (Mus musculus [11]): inactive; Cmax [12]: 1400 nM; Tmax [13]: 6 h; AUC(0-t) [14]: 23.6 µM·h; half-life [15]: 810 min; Ratio [16]: 0.65 |
| 38 | 900 | 1.2 | 600 (≈ 208 µg/mL) | < 0.002 | Cc1cn(-c2cccc(F)c2)c2ccc(C(=O)NS(C)(=O)=O)cc12 | 12 | 35 | 13.2 |  |
| 32 | 810 | 1.8 | 440 (≈ 164 µg/mL) | < 0.002 | Cc1cn(-c2cccc(F)c2)c2ccc(C(=O)NS(=O)(=O)C3CC3)cc12 | 4.8 | 14 | 42.1 | Efficacy (Mus musculus [9]): 79%; Cmax [12]: 1700 nM; Tmax [13]: 1 h; AUC(0-t) [14]: 12.1 µM·h; half-life [15]: 300 min; clearance [17]: 2.58 mL/min/kg; Vd [18]: 0.57 L/kg; bioavailability [19]: 65%; Ratio [16]: <0.0042 |
| 0.6 |  |  |  |  | C[C@@H](c1cc(Cl)cc(Cl)c1)N1CCC(COc2cc(F)c(C(=O)NS(C)(=O)=O)cc2C2CC2)CC1 |  | 0.551 |  | IC50 at 5.5 min [20]: 202 nM |
| 14 | 980 | 0.8 | 430 (≈ 157 µg/mL) | < 0.002 | Cc1cn(-c2cccc(F)c2)c2cc(F)c(C(=O)NS(C)(=O)=O)cc12 | > 100 | 31 | 15.6 |  |
| 34 | 680 | 1.7 | > 820 | 0.002 | Cc1cn(-c2cccc(C(F)(F)F)c2)c2ccc(C(=O)NS(C)(=O)=O)cc12 | 20 | 27 | 49.8 |  |
| 52 | 1700 |  |  |  | CS(=O)(=O)NC(=O)c1cc(Cl)c(Oc2cnc(C3CC3)c(Cl)c2)cc1F | 22 | 29 |  |  |
| 19 | 16 | 1.5 | 230 (≈ 95.3 µg/mL) | 0.004 | Cc1cn(-c2cccc(C(F)(F)F)c2)c2cc(F)c(C(=O)NS(C)(=O)=O)cc12 | > 100 | 14 | 54.8 | Ratio IC50 [8]: 5000; Ratio IC50 [23]: 740; Activity (Mus musculus [24]): Active |
